Like-named read-outs stand apart in the source and are kept apart here.
Columns and labels:
TK-10 = test: NCI in-vitro testing, TK-10 (Renal Cancer)
OVCAR-5 = test: NCI in-vitro testing, OVCAR-5 (Ovarian Cancer)
U251 = test: NCI in-vitro testing, U251 (CNS Cancer)
SR = test: NCI in-vitro testing, SR (Leukemia); assay type: cell-based; settings: for GI50: Homo sapiens
NCI/ADR-RES = test: NCI in-vitro testing, NCI/ADR-RES (Breast Cancer)
HOP-62 = test: NCI in-vitro testing, HOP-62 (Non-Small Cell Lung Cancer)
Ovcar443 = test: Cell viability, Ovcar443 ovary cancer cells; assay type: cell-based
A498 = test: NCI in-vitro testing, A498 (Renal Cancer); settings: A498

Compound: OCc1cn(Cc2ccc(Cl)cc2)c2ccccc12 [Oncrasin K060, 1H-Indole-3-methanol, 1-[(4-chlorophenyl)methyl]-]
- GI50 (TK-10; Homo sapiens, TK-10): 15.3 nM
- CC50 (TK-10; Homo sapiens, TK-10, read-out: LC50): > 100000 nM
- GI50 (TK-10; Homo sapiens, TK-10, read-out: Log10 GI50 (converted)): 15.1 nM
- TGI (TK-10; TK-10): 8.94E−8 Molar
- Percent Growth (TK-10; TK-10, Log10 Concentration −4.0 Molar): −18%
- Percent Growth (TK-10; TK-10, Log10 Concentration −5.0 Molar): −8%
- Percent Growth (TK-10; TK-10, Log10 Concentration −6.0 Molar): −10%
- Percent Growth (TK-10; TK-10, Log10 Concentration −7.0 Molar): −3%
- Percent Growth (TK-10; TK-10, Log10 Concentration −8.0 Molar): 82%
- GI50 (OVCAR-5; Homo sapiens, OVCAR-5): < 10 nM
- CC50 (OVCAR-5; Homo sapiens, OVCAR-5, read-out: LC50): > 100000 nM
- GI50 (OVCAR-5; Homo sapiens, OVCAR-5, read-out: Log10 GI50 (converted)): < 10 nM
- TGI (OVCAR-5; OVCAR-5): 3.72E−7 Molar
- Percent Growth (OVCAR-5; OVCAR-5, Log10 Concentration −4.0 Molar): −50%
- Percent Growth (OVCAR-5; OVCAR-5, Log10 Concentration −5.0 Molar): −23%
- Percent Growth (OVCAR-5; OVCAR-5, Log10 Concentration −6.0 Molar): −7%
- Percent Growth (OVCAR-5; OVCAR-5, Log10 Concentration −7.0 Molar): 10%
- Percent Growth (OVCAR-5; OVCAR-5, Log10 Concentration −8.0 Molar): 43%
- GI50 (U251; Homo sapiens, U-251): 2460 nM
- CC50 (U251; Homo sapiens, U-251, read-out: LC50): > 100000 nM
- GI50 (U251; Homo sapiens, U-251, read-out: Log10 GI50 (converted)): 2450 nM
- TGI (U251; U251): 2.63E−5 Molar
- Percent Growth (U251; U251, Log10 Concentration −4.0 Molar): −35%
- Percent Growth (U251; U251, Log10 Concentration −5.0 Molar): 25%
- Percent Growth (U251; U251, Log10 Concentration −6.0 Molar): 55%
- Percent Growth (U251; U251, Log10 Concentration −7.0 Molar): 84%
- Percent Growth (U251; U251, Log10 Concentration −8.0 Molar): 93%
- TGI (SR): 1.26E−8 Molar
- GI50 (SR; Leukemia, NCI Mean Graphs, read-out: Log10 GI50 (converted)): < 10 nM
- GI50 (SR; read-out: GI50): < 1000 nM
- Percent Growth (SR; Log10 Concentration −4.0 Molar): −71%
- Percent Growth (SR; Log10 Concentration −5.0 Molar): −18%
- Percent Growth (SR; Log10 Concentration −6.0 Molar): −71%
- Percent Growth (SR; Log10 Concentration −7.0 Molar): −26%
- Percent Growth (SR; Log10 Concentration −8.0 Molar): 43%
- TGI (NCI/ADR-RES): 3.32E−5 Molar
- GI50 (NCI/ADR-RES; Homo sapiens): 9220 nM
- CC50 (NCI/ADR-RES; Homo sapiens, read-out: LC50): > 100000 nM
- GI50 (NCI/ADR-RES; Homo sapiens, read-out: Log10 GI50 (converted)): 9120 nM
- Percent Growth (NCI/ADR-RES; Log10 Concentration −4.0 Molar): −45%
- Percent Growth (NCI/ADR-RES; Log10 Concentration −5.0 Molar): 49%
- Percent Growth (NCI/ADR-RES; Log10 Concentration −6.0 Molar): 86%
- Percent Growth (NCI/ADR-RES; Log10 Concentration −7.0 Molar): 94%
- Percent Growth (NCI/ADR-RES; Log10 Concentration −8.0 Molar): 103%
- TGI (HOP-62; HOP-62): 1.93E−5 Molar
- Percent Growth (HOP-62; HOP-62, Log10 Concentration −4.0 Molar): −37%
- Percent Growth (HOP-62; HOP-62, Log10 Concentration −5.0 Molar): 15%
- Percent Growth (HOP-62; HOP-62, Log10 Concentration −6.0 Molar): 36%
- Percent Growth (HOP-62; HOP-62, Log10 Concentration −7.0 Molar): 07%
- Percent Growth (HOP-62; HOP-62, Log10 Concentration −8.0 Molar): 91%
- GI50 (HOP-62; Homo sapiens, HOP-62): 300 nM
- CC50 (HOP-62; Homo sapiens, HOP-62, read-out: LC50): > 100000 nM
- GI50 (HOP-62; Homo sapiens, HOP-62, read-out: Log10 GI50 (converted)): 363 nM
- IC50 (Ovcar443): 2510 nM
- TGI (A498): 3.33E−8 Molar
- Percent Growth (A498; Log10 Concentration −4.0 Molar): −94%
- Percent Growth (A498; Log10 Concentration −5.0 Molar): −95%
- Percent Growth (A498; Log10 Concentration −6.0 Molar): −87%
- Percent Growth (A498; Log10 Concentration −7.0 Molar): −56%
- Percent Growth (A498; Log10 Concentration −8.0 Molar): 61%

— US8883841B2, “Oncogenic ras-specific cytotoxic compound and methods of use thereof” (The Board of Regents of the University of Texas System, priority 2005, dated 2014)
